This experiment concerns the target α7 nAChR subtype (Rattus norvegicus, UniProt Q05941). The class given is binding. The settings on record: read-out: KD of radioligand (saturation curve, one site model).

Chain of α7 nAChR subtype (Q05941 23-502 limits assumed): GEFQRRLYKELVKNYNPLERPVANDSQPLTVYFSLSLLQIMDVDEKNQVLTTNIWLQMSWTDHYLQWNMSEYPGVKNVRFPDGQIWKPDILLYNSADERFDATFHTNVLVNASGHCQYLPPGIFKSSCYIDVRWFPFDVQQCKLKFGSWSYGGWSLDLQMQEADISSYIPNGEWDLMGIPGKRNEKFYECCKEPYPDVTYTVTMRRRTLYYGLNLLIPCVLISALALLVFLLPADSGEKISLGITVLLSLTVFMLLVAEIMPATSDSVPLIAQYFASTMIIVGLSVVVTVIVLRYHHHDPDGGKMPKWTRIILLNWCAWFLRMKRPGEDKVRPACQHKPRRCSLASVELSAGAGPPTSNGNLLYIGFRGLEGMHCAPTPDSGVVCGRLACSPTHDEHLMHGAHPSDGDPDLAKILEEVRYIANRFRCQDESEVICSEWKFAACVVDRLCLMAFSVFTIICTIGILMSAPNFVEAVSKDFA

Take [^125I]-α-Bungarotoxin [[^125I]-α-BTX]: the Kd came out at 1.67 nM.

Source of the values: patent publication US7482338B2 (priority 2003, dated 2009).
